What was measured:
Assay in all cases: Bliss excess, mean over the matrix (fraction); higher = more synergy
[1] = system: A498 (Kidney Carcinoma)
Summary of the method: (§1)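 Cell lines grown in DMEM/F12 or RPMI with 10% FBS were plated in 1536-well plates and held 24 hours at 37°C, 5% CO2 before 72 hours of exposure to two-drug dose matrices, with DMSO typically at 0.2%. CellTiter-Glo 2.0 luminescence gave viability, which was converted to inhibition. Vehicle wells were set to 0 and blank wells to 1. Combination Emax is the second-highest inhibition in the matrix, and Bliss excess is the observed combination effect minus the expected EA + EB − EA·EB, where EA and EB are the single-agent effects.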

[2] = system: ARH-77 (Non-Cancerous)
Summary of the method: as §1

[3] = system: BICR22 (Oral Cavity Carcinoma)
Summary of the method: as §1

[4] = system: CAL-29 (Bladder Carcinoma)
Summary of the method: as §1

[5] = system: CAPAN-2 (Pancreatic Carcinoma)
Summary of the method: as §1

[6] = system: CAS-1 (Glioblastoma)
Summary of the method: as §1

[7] = system: CCK-81 (Colorectal Carcinoma)
Summary of the method: as §1

[8] = system: COLO-824 (Breast Carcinoma)
Summary of the method: as §1

[9] = system: COR-L311 (Small Cell Lung Carcinoma)
Summary of the method: as §1

[10] = system: GI-ME-N (Neuroblastoma)
Summary of the method: as §1

[11] = system: Hs-445 (Non-Cancerous)
Summary of the method: as §1

[12] = system: NCI-H1581 (Non-Small Cell Lung Carcinoma)
Summary of the method: as §1

[13] = system: NCI-H1650 (Lung Adenocarcinoma)
Summary of the method: as §1

[14] = system: NCI-H1666 (Lung Adenocarcinoma)
Summary of the method: as §1

[15] = system: NCI-H2066 (Squamous Cell Lung Carcinoma)
Summary of the method: as §1

[16] = system: ONS-76 (Other Solid Carcinomas)
Summary of the method: as §1

[17] = system: SISO (Cervical Carcinoma)
Summary of the method: as §1

[18] = system: SK-MES-1 (Squamous Cell Lung Carcinoma)
Summary of the method: as §1

[19] = system: SK-MG-1 (Low Grade Glioma)
Summary of the method: as §1

[20] = system: TT (Thyroid Gland Carcinoma)
Summary of the method: as §1

Structure (SMILES)	Bliss excess [1]	Bliss excess [2]	Bliss excess [3]	Bliss excess [4]	Bliss excess [5]	Bliss excess [6]	Bliss excess [7]	Bliss excess [8]	Bliss excess [9]	Bliss excess [10]	Bliss excess [11]	Bliss excess [12]	Bliss excess [13]	Bliss excess [14]	Bliss excess [15]	Bliss excess [16]	Bliss excess [17]	Bliss excess [18]	Bliss excess [19]	Bliss excess [20]
COc1cccc(OCCCN)c1-c1cc(Nc2cnc(C#N)cn2)n[nH]1 [Prexasertib] + O=C(c1cc(Cc2n[nH]c(=O)c3ccccc23)ccc1F)N1CCN(C(=O)C2CC2)CC1 [Olaparib] (first compound max 1 µM, 7x7, partner max 10 µM)	-0.0622	-0.0485	-0.0685	-0.185	-0.169	-0.0979	-0.12	-0.0481	-0.101	-0.0649	-0.0358	0.0257	-0.0152	-0.0096	-0.0492	-0.123	0.0003	-0.0174	0.0026	-0.141
COc1cccc(OCCCN)c1-c1cc(Nc2cnc(C#N)cn2)n[nH]1 [Prexasertib] + C[C@@H]1COCCN1C2=NC(=NC(=C2)C3(CC3)[S@](=N)(=O)C)C4=C5C=CNC5=NC=C4 [AZD6738] (first compound max 1 µM, 7x7, partner max 10 µM)	-0.0514	0.0006	-0.0153	-0.0331	-0.003	-0.0095	-0.0277	-0.0675	-0.0363	0.0681	-0.0661	0.0436	0.0094	0.0338	-0.0154	-0.0803	0.0309	-0.0205	-0.0012	0.0244
COc1nnc2ccc(N3CCC(c4ccc(OCCN5CCN(C)C(=O)[C@H]5C)cc4)CC3)nn12 [AZD5153] + Cc1c2c(nn1C)CSCc1cc(n(C)n1)CSc1cc(c3ccccc3c1)OCCCc1c(C(=O)O)n(C)c3c-2c(Cl)ccc13 [AZD5991] (first compound max 1 µM, 7x7, partner max 1 µM)	-0.0226	-0.04	-0.0013	-0.0162	-0.0078	-0.0333	-0.0485	-0.0584	-0.0225	-0.0142	-0.0723	-0.0739	-0.0082	-0.0538	-0.0569	-0.0081	0.0698	-0.0084	-0.0383	-0.0291
COc1nnc2ccc(N3CCC(c4ccc(OCCN5CCN(C)C(=O)[C@H]5C)cc4)CC3)nn12 [AZD5153] + CCN(CCO)CCCOc1ccc2c(Nc3cc(CC(=O)Nc4cccc(F)c4)[nH]n3)ncnc2c1 [AZD2811] (first compound max 1 µM, 7x7, partner max 1 µM)	-0.0453	-0.0471	-0.118	0.0084	-0.0286	-0.0797	-0.0361	-0.0422	-0.0357	0.0022	-0.0783	-0.143	-0.0868	-0.0376	-0.0352	-0.0124	0.0112	-0.0546	-0.0568	-0.0755
Cc1c2c(nn1C)CSCc1cc(n(C)n1)CSc1cc(c3ccccc3c1)OCCCc1c(C(=O)O)n(C)c3c-2c(Cl)ccc13 [AZD5991] + C[C@@H](Nc1cc(F)cc(F)c1)c1cc(C(=O)N(C)C)cc2c(=O)cc(N3CCOCC3)oc12 [AZD8186] (first compound max 1 µM, 7x7, partner max 3 µM)	-0.0252	-0.0404	-0.0014	0.0096	0.023	-0.0108	0.0103	0.0043	-0.0098	-0.0631	-0.0177	-0.0068	0.0221	-0.0359	-0.0445	-0.0517	-0.0067	0.052	-0.0124	-0.0219
NC1(C(=O)N[C@@H](CCO)c2ccc(Cl)cc2)CCN(c2ncnc3[nH]ccc23)CC1 [Capivasertib] + CC(C)n1c(=O)n(C)c2cnc3cc(F)c(-c4ccc(OCCCN5CCCCC5)nc4)cc3c21 [AZD1390] (first compound max 10 µM, 7x7, partner max 0.3 µM)	-0.0632	-0.0509	-0.018	-0.0702	-0.0651	-0.0671	-0.0514	-0.0137	-0.0564	-0.0993	-0.0763	-0.0784	-0.0219	-0.0285	-0.0222	-0.0894	-0.0782	-0.0874	-0.111	-0.0945
CC1(C)CCC(CN2CCN(c3ccc(C(=O)NS(=O)(=O)c4ccc(NCC5CCOCC5)c([N+](=O)[O-])c4)c(Oc4cnc5[nH]ccc5c4)c3)CC2)=C(c2ccc(Cl)cc2)C1 [Venetoclax] + Cc1cc2ncnn2cc1Nc1ncc2c(n1)n(C1CCOCC1)c(=O)n2C [AZD7648] (first compound max 1 µM, 7x7, partner max 10 µM)	-0.0755	0.0245	-0.0376	-0.0222	-0.0083	-0.05	-0.0114	0.0222	0.0472	-0.0235	-0.0081	0.0081	-0.0446	-0.0821	-0.0266	-0.0499	-0.01	-0.0002	-0.0351	-0.0161
Cc1c2c(nn1C)CSCc1cc(n(C)n1)CSc1cc(c3ccccc3c1)OCCCc1c(C(=O)O)n(C)c3c-2c(Cl)ccc13 [AZD5991] + CC1(C)CCC(CN2CCN(c3ccc(C(=O)NS(=O)(=O)c4ccc(NCC5CCOCC5)c([N+](=O)[O-])c4)c(Oc4cnc5[nH]ccc5c4)c3)CC2)=C(c2ccc(Cl)cc2)C1 [Venetoclax] (first compound max 1 µM, 7x7, partner max 1 µM)	-0.108	0.0087	0.0003	0.0101	-0.0292	-0.0284	0.0362	0.11	0.157	-0.0408	0.0357	-0.0061	-0.0246	-0.0478	-0.0303	-0.0214	-0.0181	-0.0302	-0.0221	0.0887
CN(CCO)CC[C@H](CSc1ccccc1)Nc1ccc(S(=O)(=O)NC(=O)c2ccc(N3CCC([C@@H](O)c4ccccc4-c4ccc(Cl)cc4)CC3)cc2)cc1S(=O)(=O)C(F)(F)F [AZD4320] + C[C@@H]1COCCN1C2=NC(=NC(=C2)C3(CC3)[S@](=N)(=O)C)C4=C5C=CNC5=NC=C4 [AZD6738] (first compound max 1 µM, 7x7, partner max 10 µM)	-0.157	-0.0049	-0.0433	0.0426	-0.0461	-0.0307	-0.0546	-0.0365	-0.0005	-0.0403	0.0592	-0.0837	0.0045	-0.0645	-0.0437	-0.0386	-0.0078	0.0228	0.0076	-0.033
CC1(C)CCC(CN2CCN(c3ccc(C(=O)NS(=O)(=O)c4ccc(NCC5CCOCC5)c([N+](=O)[O-])c4)c(Oc4cnc5[nH]ccc5c4)c3)CC2)=C(c2ccc(Cl)cc2)C1 [Venetoclax] + C[C@@H](Nc1cc(F)cc(F)c1)c1cc(C(=O)N(C)C)cc2c(=O)cc(N3CCOCC3)oc12 [AZD8186] (first compound max 1 µM, 7x7, partner max 3 µM)	-0.043	0.0649	-0.0378	-0.0341	-0.0167	-0.04	-0.0287	0.139	0.0257	-0.06	0.0888	0.0121	-0.019	-0.0705	-0.0182	-0.025	-0.0268	0.0051	-0.0149	-0.0467
CN(C)CCCOc1ccc(-c2ccc3ncc4c(c3c2)n(C2CCOCC2)c(=O)n4C)cn1 [AZD0156] + CCN(CCO)CCCOc1ccc2c(Nc3cc(CC(=O)Nc4cccc(F)c4)[nH]n3)ncnc2c1 [AZD2811] (first compound max 1 µM, 7x7, partner max 1 µM)	-0.0302	0.0216	0.0091	0.0269	-0.0637	0.0191	-0.0302	-0.0565	0.0607	-0.0488	0.045	-0.007	-0.0571	-0.0661	-0.0649	-0.0169	0.0081	-0.0458	0.0212	-0.0871
CN(CCO)CC[C@H](CSc1ccccc1)Nc1ccc(S(=O)(=O)NC(=O)c2ccc(N3CCC([C@@H](O)c4ccccc4-c4ccc(Cl)cc4)CC3)cc2)cc1S(=O)(=O)C(F)(F)F [AZD4320] + C[C@@H](Nc1cc(F)cc(F)c1)c1cc(C(=O)N(C)C)cc2c(=O)cc(N3CCOCC3)oc12 [AZD8186] (first compound max 1 µM, 7x7, partner max 3 µM)	0.0903	0.0067	-0.0108	-0.0215	-0.0099	-0.0831	0.0755	0.0422	0.0588	0.0272	0.0667	0.0052	0.0346	0.0153	-0.0671	0.0221	0.0326	0.031	-0.0189	-0.061
Cc1cc2ncnn2cc1Nc1ncc2c(n1)n(C1CCOCC1)c(=O)n2C [AZD7648] + C[C@@H]1COCCN1C2=NC(=NC(=C2)C3(CC3)[S@](=N)(=O)C)C4=C5C=CNC5=NC=C4 [AZD6738] (first compound max 10 µM, 7x7, partner max 10 µM)	0.0313	-0.0463	0.0114	-0.012	0.022	0.0024	0.0178	0.0794	-0.016	0.0346	0.001	0.0217	0.0308	0.0034	0.025	-0.0282	0.0202	-0.0084	0.0011	0.0666
NC1(C(=O)N[C@@H](CCO)c2ccc(Cl)cc2)CCN(c2ncnc3[nH]ccc23)CC1 [Capivasertib] + COc1nnc2ccc(N3CCC(c4ccc(OCCN5CCN(C)C(=O)[C@H]5C)cc4)CC3)nn12 [AZD5153] (first compound max 10 µM, 7x7, partner max 1 µM)	0.0826	-0.0253	0.024	0.0937	-0.0143	0.0268	-0.0176	0.0218	-0.0089	-0.0309	-0.027	-0.0303	0.0322	-0.0136	0.0135	0.0234	0.009	0.046	0.0477	0.0241
